The values that follow come from patent US20200247812A1 (Integral Biosciences Private Limited, priority 2018, published 2020).

Structures can show the parent of a compound that is named as a salt.

The target in one experiment is T1, ALK 5 (Homo sapiens, UniProt P36897).
T1 sequence (P36897 34-503): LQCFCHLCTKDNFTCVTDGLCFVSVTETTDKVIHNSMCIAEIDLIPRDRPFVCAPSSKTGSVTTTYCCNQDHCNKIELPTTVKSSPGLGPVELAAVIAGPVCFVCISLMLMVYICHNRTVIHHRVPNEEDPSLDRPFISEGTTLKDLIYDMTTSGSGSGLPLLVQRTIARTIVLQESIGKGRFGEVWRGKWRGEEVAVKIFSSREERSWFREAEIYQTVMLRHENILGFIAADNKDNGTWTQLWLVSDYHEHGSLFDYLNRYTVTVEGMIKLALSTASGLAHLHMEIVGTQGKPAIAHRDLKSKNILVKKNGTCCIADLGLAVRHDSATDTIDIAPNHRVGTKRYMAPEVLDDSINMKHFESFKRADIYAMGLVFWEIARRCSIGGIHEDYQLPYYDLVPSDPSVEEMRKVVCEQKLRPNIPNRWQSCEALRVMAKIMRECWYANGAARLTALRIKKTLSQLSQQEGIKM
Kind of experiment: In vitro kinase assay (ALK5 IC50, LanthaScreen Terbium labeled TR-FRET). Type of experiment: biochemical. The settings on record: TGF-β kinase 6 nM, ATP 10 μM, read-out: Enzyme Activity ALK 5 IC50. In a few lines: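 LanthaScreen Tb TR-FRET: ALK5 (6 nM) preincubated 10 min with 3-fold diluted compounds, then 10 μM ATP and 200 nM fluorescent PolyGT substrate added for 1 h at room temperature. Stopped with EDTA/Tb antibody; 520/495 nm emission read. IC50 from four-parameter fit versus DMSO and no-enzyme controls.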
In general terms: Time-resolved FRET reads energy transfer from a long-lived donor to a nearby acceptor.

Experiment [1] deals with phosphorylation of Smad-2 in THP-1 cells. Put plainly: Inhibition of phosphorylation of Smad-2 in THP-1 cells (Phospho-Smad2 ELISA). Type of experiment: cell-based.
The test system of a further experiment is human PBMC's. Kind of experiment: Viability in CD3e/CD28 activated human PBMC's (resazurin). Type of experiment: cell-based. The settings on record: 72 hr. As to the method:
IC50 values of compounds for determining viability in CD3e/CD28 activated human PBMC's (hPBMC-34033, Cat # CC-2702; Lonza) cultured in LGM3 medium, Cat # CC #3211; Lonza). Human PBMC's (0.25×10^6 cells/well) were activated with Anti-human CD3e (0.5 μg/ml, coated overnight at 4° C.; Cat #16-0037-81, eBioscience) and then incubated with serial dilutions of compounds (3 fold, 8 point dose response starting at 30 μM) for 30 min at 37° C., 5% CO2 in an incubator (cell culture conditions) prior to treating them with Anti-human CD28 (0.25 μg/ml soluble; Cat #16-0289-81, eBiosciences). Human PBMC's were further incubated under cell culture conditions for 72 hr following which experiment was terminated by replacing the medium with 100 μl of 1 mM of resazurin (R7017; Sigma) prepared in culture medium and the plates were further incubated in culture conditions for 4 hr. Fluorescence was then measured using a multimodal plate reader (Biotek Synergy Neo) at an excitation wavelength of 535 nm and emission wavelength of 590 nm to obtain relative fluorescence units. Data analysis was done by subtracting the background fluorescence (only medium blank) value from each reading and then normalizing with the vehicle control (DMSO treated cells) to obtain percent survival/proliferation. Percent survival at different doses was used to calculate IC50 by fitting the curve to the “four-parameter variable slope logistic model” using Prism Graph Pad.

A further experiment concerns 22Rv1. Kind of experiment: Cell viability assay (resazurin), 22Rv1. The settings on record: Homo sapiens, 72-144 hr. Type of experiment: cell-based. As to the method: (§1) Different cell lines such as pancreatic, (MIA PaCa-2; ATCC®CRL-1420™ & and Panc-1; CRL-1469™), liver carcinoma (HepG2; ATCC® HB-8065™), lung epithelial carcinoma (A549; ATCC® CCL-185™) and others were seeded in their respective medium (DMEM, Cat #10569044, MEM, Cat #41090036; RPMI, Cat #22400089; all with 10% FBS, Gibco, ThermoFisher) at a cell count of 3000 cells per 100 μl per well in a 96 well edge plate (167425; ThermoFisher). Cells were allowed to grow at 37° C. for 24 hr in 5% CO2 (culture conditions) in a Nuaire incubator (humidified). Serially diluted compounds (100 μl) were added to the culture plate 24 hr later and the cultures were further incubated in culture conditions for specified time depending on doubling time of specific cell line (ranging from 72-144 hr). Experiment was terminated at the completion of incubation time with the drug by replacing the medium with 100 μl of 1 mM of resazurin (R7017; Sigma) prepared in respective culture medium and the plates were further incubated in culture conditions for 4 hr. Fluorescence was then measured using a multimodal plate reader (Biotek Synergy Neo) at an excitation wavelength of 535 nm and emission wavelength of 590 nm to obtain relative fluorescence units. Data analysis was done by subtracting the background fluorescence (only medium blank) value from each reading and then normalizing with the vehicle control (DMSO treated cells) to obtain percent survival/proliferation. Percent survival at different doses was used to calculate IC50 by fitting the curve to the “four-parameter variable slope logistic model” using Prism Graph Pad.
In general terms: Alamar Blue is a resazurin reagent that responds to reducing activity.

In a further experiment the test system is HCT116. Kind of experiment: Cell viability assay (resazurin), HCT116. Type of experiment: cell-based. The settings on record: Homo sapiens, HCT-116, 72-144 hr. The method, then:
as §1

For the next experiment, the system named is HepG2. Put plainly: Cell viability assay (resazurin), HepG2. Type of experiment: cell-based. The following applies: Homo sapiens, 72-144 hr. As to the method: as §1
A further experiment relates to THP1. Kind of experiment: Cell viability assay (resazurin), THP1. Type of experiment: cell-based. The following applies: Homo sapiens, THP-1, 72-144 hr. The method, then:
as §1

The subject of a further experiment is A549. Put plainly: Cell viability assay (resazurin), A549. Type of experiment: cell-based. The settings on record: Homo sapiens, 72-144 hr. As to the method:
as §1

The next experiment concerns AsPC-1. Kind of experiment: Cell viability assay (resazurin), AsPC-1. Type of experiment: cell-based. The settings on record: Homo sapiens, ASPC1, 72-144 hr. The method, then: as §1
Another experiment has as its system Panc-10.05. Kind of experiment: Cell viability assay (resazurin), Panc-10.05. Type of experiment: cell-based. The settings on record: Homo sapiens, Panc1005, 72-144 hr. The method, then: as §1
For another experiment, the system named is A427. Put plainly: Cell viability assay (resazurin), A427. Type of experiment: cell-based. The settings on record: Homo sapiens, A-427, 72-144 hr. The method, then: as §1
Another experiment deals with MDA_MB-231. Kind of experiment: Cell viability assay (resazurin), MDA_MB-231. Type of experiment: cell-based. The settings on record: Homo sapiens, MDA-MB-231, 72-144 hr. The method, then:
as §1

The next experiment deals with MCF7. Put plainly: Cell viability assay (resazurin), MCF7. Type of experiment: cell-based. The settings on record: Homo sapiens, 72-144 hr. As to the method: as §1
In experiment [2] the test system is phosphorylation of Smad-2 in THP-1 cells. Kind of experiment: Inhibition of phosphorylation of Smad-2 in THP-1 cells (Phospho-Smad2 ELISA). The settings on record: 1.5 h, human TGF-β 20 ng/ml, 90 min, read-out: pSmad2 IC50. Type of experiment: cell-based. The method, then:
IC50 values of compounds for determining inhibition of phosphorylation of Smad-2 in THP-1 cells (ATCC, Cat # ATCC® TIB-202™) cultured in RPMI medium, (Cat #22400089; with 10% FBS, Gibco, ThermoFisher). THP-1 cells (1.0×10^6 cells/well; 6 well plate) were incubated with serial dilutions of compounds (3 fold, 5 point dose response starting at 10 μM) for 60 min at 37° C., 5% CO2 in an incubator (cell culture conditions) prior to treating them with Recombinant Human TGF-β (20 ng/ml soluble; Cat #100-21, Peprotech) for 90 min. The cells were then pelleted and processed for protein estimation and evaluation of pSmad using ELISA kit from Cell Signaling (PathScan(R) Phospho-Smad2 (Ser465/467) Sandwich ELISA; Cat #7348C) as per manufacturer's protocol. Data analysis was done by subtracting the background absorbance (only negative control) value from each reading and then normalizing with the vehicle control (DMSO treated cells) to obtain percent levels of pSmad-2. Percent inhibition thus obtained (by subtracting expression levels of pSmad from 100) at different doses was used to calculate IC50 by fitting the curve to the “four-parameter variable slope logistic model” using Prism Graph Pad.

The test system of a further experiment is MV-4-11. Kind of experiment: Cell viability assay (resazurin), MV-4-11. Type of experiment: cell-based. The following applies: Homo sapiens, MV4-11, 72-144 hr. As to the method:
as §1

As usually defined, the IC50 is the midpoint of a concentration-inhibition curve. `CC(C)c1[nH]c(=O)c(-c2cc(Cl)ccc2F)cc1Nc1ccncc1C(=O)NC[C@H](C)O` [Compound 1.5, (S)-4-((5-(5-chloro-2-fluorophenyl)-2-isopropyl-6-oxo-1,6-dihydropyridin-3-yl)amino)-N-(2-hydroxypropyl)nicotinamide]: the IC50 on ALK 5 is no more than 0.5 µM. Besides, the figures for the “% Inhibition of pSmad2” value in [1] (3 μg) and in [1] (10 μg) were 47.3% and 53.3%, respectively.
On to `C[C@@H](CO)NC(=O)c1cnccc1Nc1cc(-c2cc(Cl)ccc2F)c(=O)[nH]c1N(C)C` [Compound 1.10, (S)-4-((5-(5-chloro-2-fluorophenyl)-2-(dimethylamino)-6-hydroxypyridin-3-yl)amino)-N-(1-hydroxypropan-2-yl)nicotinamide], for which the IC50 is no more than 0.5 µM on ALK 5 and 24.5 µM with human PBMC's. Moreover, the results for the “% Inhibition of pSmad2” value in [1] (3 μg) and in experiment [1] (10 μg) were 36.7% and 45.1%, respectively.
On to `CN(C)c1[nH]c(=O)c(-c2cc(Cl)ccc2F)cc1Nc1ccnc2[nH]ccc12` [Compound 1.12, 5-((1H-pyrrolo[2,3-b]pyridin-4-yl)amino)-3-(5-chloro-2-fluorophenyl)-6-(dimethylamino)pyridin-2-ol hydrochloride], for which the IC50 at ALK 5 was no more than 0.5 µM; in the experiment with 22Rv1 it was 1.53 µM; in the experiment on HCT116 it was 2.64 µM; in the experiment with human PBMC's, 18.2 µM; in the experiment with HepG2 it was 2.64 µM; in the experiment with THP1, 0.635 µM. Further, the IC50 in the experiment on A549 is 2.77 µM; with AsPC-1, 1.82 µM; in the experiment on Panc-10.05, 2.21 µM; in the experiment on A427, 3.1 µM; in the experiment on MDA_MB-231, 2.75 µM. Besides, the entries for the “% Inhibition of pSmad2” value in experiment [1] (3 μg) and in experiment [1] (10 μg) were 51.6% and 48.4%, respectively.
As for `COC(=O)c1cnccc1Nc1cc(-c2cc(Cl)ccc2F)c(=O)[nH]c1N(C)C` [Compound 1.29, methyl 4-((5-(5-chloro-2-fluorophenyl)-2-(dimethylamino)-6-hydroxypyridin-3-yl)amino)nicotinate], the IC50 at ALK 5 is 0.5 to 2 µM; in the experiment with HCT116 it was greater than 30 µM.
Take `CN(C)c1[nH]c(=O)c(-c2cc(Cl)ccc2F)cc1Nc1ccncc1C(N)=O` [Compound 1.32, 4-((5-(5-chloro-2-fluorophenyl)-2-(dimethylamino)-6-hydroxypyridin-3-yl)amino)nicotinamide]: the IC50 is no more than 0.5 µM on ALK 5; greater than 30 µM with HCT116; greater than 30 µM in the experiment on A549; greater than 30 µM with AsPC-1; greater than 10 µM in the experiment with MCF7; greater than 30 µM in the experiment with Panc-10.05. Besides, the IC50 in the experiment on A427 and with MDA_MB-231 was greater than 30 µM throughout. In addition, the “% Inhibition of pSmad2” value turned out to be 51.3% in [1] (3 μg) and 50.5% in [1] (10 μg).
As to `CC(=O)Nc1cc(Nc2cc(-c3cc(Cl)ccc3F)c(=O)[nH]c2N(C)C)ccn1` [Compound 1.40, N-(4-((5-(5-chloro-2-fluorophenyl)-2-(dimethylamino)-6-oxo-1,6-dihydropyridin-3-yl)amino)pyridin-2-yl)acetamide], the IC50 on ALK 5 was no more than 0.5 µM; in the experiment on HCT116, 13.4 µM; with HepG2, 12.6 µM; in the experiment with THP1, 6.09 µM; with A549, 28.5 µM; in the experiment on Panc-10.05, 28.5 µM. The IC50 came to 15.2 µM in the experiment on A427 and 12.6 µM in the experiment on MDA_MB-231.
Turning to `CC(C)c1[nH]c(=O)c(-c2cc(Cl)ccc2F)cc1Nc1ccnc2c1CC(=O)N2` [Compound 1.61, 4-((5-(5-chloro-2-fluorophenyl)-2-isopropyl-6-oxo-1,6-dihydropyridin-3-yl)amino)-1,3-dihydro-2H-pyrrolo[2,3-b]pyridin-2-one], the IC50 on ALK 5 was no more than 0.5 µM; with HCT116 it was greater than 30 µM; in the experiment on HepG2 it was greater than 30 µM; in experiment [2], 1.33 µM; in the experiment with AsPC-1, greater than 30 µM; in the experiment with MCF7, greater than 30 µM. The IC50 in the experiment with MDA_MB-231 is greater than 30 µM.
With `CC(=O)Nc1cc(Nc2cc(-c3cc(Cl)ccc3F)c(=O)[nH]c2C2CC2)ccn1` [Compound 1.69, N-(4-((5-(5-chloro-2-fluorophenyl)-2-cyclopropyl-6-oxo-1,6-dihydropyridin-3-yl)amino)pyridin-2-yl)acetamide], the IC50 on ALK 5 is no more than 0.5 µM; with MV-4-11, 16.3 µM; with HCT116 it was greater than 30 µM; in the experiment with HepG2 it was 15.7 µM; in the experiment on THP1, 13 µM; in the experiment on MCF7, 18.7 µM. Further, the IC50 was greater than 30 µM in the experiment on A427 and 15.3 µM in the experiment on MDA_MB-231.
Consider `CCc1[nH]c(=O)c(-c2cc(Cl)ccc2F)cc1Nc1ccnc(NC(C)=O)c1` [Compound 1.70, N-(4-((5-(5-chloro-2-fluorophenyl)-2-ethyl-6-oxo-1,6-dihydropyridin-3-yl)amino)pyridin-2-yl)acetamide], for which the IC50 on ALK 5 is no more than 0.5 µM; in the experiment on MV-4-11 it was 29.2 µM; in the experiment with HCT116, greater than 30 µM; with HepG2, 18.2 µM; with THP1, greater than 30 µM; in the experiment on MCF7, greater than 30 µM. In addition, the IC50 with A427 and with MDA_MB-231 was greater than 30 µM in each case.
